Source: KR20120090118A, “자귀나무 추출물을 포함하는 항암 또는 항암 보조용 조성물” (학교법인 동의학원, priority 2010, dated 2012)

What was measured:
[1] = test system: human Jurkat T cells [Human Jurkat T세포]; test: Combination of Julibroside III and doxorubicin: cytotoxicity (MTT assay, 48 h) and FIC in Jurkat T cells; type: cell-based
[2] = test system: mouse liver or kidney [마우스의 간이나 신장]; test: Safety in mice: histological signs of toxicity in liver or kidney (in vivo sarcoma experiment); conditions: up to 100mg/kg
[3] = doxorubicin and Julibroside III used in combination

SMILES | IC50 [1, 3] [µg/mL] | IC50 ([1]; treated alone) [µg/mL] | histological signs of toxicity in liver or kidney [2]
COc1cccc2c1C(=O)c1c(O)c3c(c(O)c1C2=O)C[C@@](O)(C(=O)CO)C[C@@H]3O[C@H]1C[C@H](N)[C@H](O)[C@H](C)O1 [독소루비신, reference compound] | 0.16 | 0.31 | 
C=C[C@](C)(CC/C=C(\C)C(=O)O[C@H]1[C@H](O)[C@@H](O)[C@H](O[C@](C)(C=C)CC/C=C(\C)C(=O)O[C@H]2C[C@]3(C(=O)O[C@@H]4O[C@H](CO)[C@@H](O)[C@H](O)[C@H]4O[C@@H]4O[C@@H](C)[C@H](O[C@@H]5O[C@@H](CO)[C@H](O)[C@H]5O)[C@@H](O[C@@H]5O[C@H](CO)[C@@H](O)[C@H](O)[C@H]5O)[C@H]4O)[C@H](O)C[C@]4(C)C(=CC[C@@H]5[C@@]6(C)CC[C@H](O[C@@H]7O[C@H](CO[C@@H]8O[C@H](C)[C@H](O)[C@H](O)[C@H]8O[C@@H]8OC[C@@H](O)[C@H](O)[C@H]8O)[C@@H](O)[C@H](O)[C@H]7NC(C)=O)C(C)(C)[C@@H]6CC[C@]54C)[C@@H]3CC2(C)C)O[C@@H]1C)O[C@@H]1O[C@H](C)[C@@H](O)[C@H](O)[C@H]1O [Julibroside III] | 0.63 | 2.5 | 징후가 전혀 없음
